The text below walks through data of patent publication US8557833B2, “Aminopyrimidines useful as kinase inhibitors” (priority 2005, dated 2013).

One data set addresses T1, Aurora-2 (Aurora A) (Homo sapiens, UniProt O14965).
T1 sequence (O14965 1-403): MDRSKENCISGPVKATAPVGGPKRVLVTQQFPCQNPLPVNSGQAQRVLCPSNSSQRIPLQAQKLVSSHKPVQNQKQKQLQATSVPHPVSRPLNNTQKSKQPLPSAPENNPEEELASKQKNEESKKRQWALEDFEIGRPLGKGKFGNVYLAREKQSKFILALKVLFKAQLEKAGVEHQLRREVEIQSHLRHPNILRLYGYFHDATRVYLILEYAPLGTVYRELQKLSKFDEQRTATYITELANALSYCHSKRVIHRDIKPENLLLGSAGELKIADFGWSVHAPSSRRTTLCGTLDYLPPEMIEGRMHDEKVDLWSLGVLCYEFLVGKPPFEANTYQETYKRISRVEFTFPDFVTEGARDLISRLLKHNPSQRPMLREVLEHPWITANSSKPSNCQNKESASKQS
Put plainly: Aurora-2 (Aurora A) inhibition assay, coupled enzyme. It counts as biochemical. As to the method:
Assays were carried out in a mixture of 100 mM Hepes (pH7.5), 10 mM MgCl2, 1 mM DTT, 25 mM NaCl, 2.5 mM phosphoenolpyruvate, 300 μM NADH, 30 μg/ml pyruvate kinase and 10 μg/ml lactate dehydrogenase. […] Assays were carried out at 30° C. and in the presence of 40 nM Aurora-2.
An assay stock buffer solution was prepared containing all of the reagents listed above, with the exception of Aurora-2 and the test compound of interest. […] The plate was preincubated for 10 minutes at 30° C. and the reaction initiated by addition of 10 μl of Aurora-2. Initial reaction rates were determined with a Molecular Devices SpectraMax Plus plate reader over a 10 minute time course. IC50 and Ki data were calculated from non-linear regression analysis using the Prism software package (GraphPad Prism version 3.0cx for Macintosh, GraphPad Software, San Diego Calif., USA).

The next data set concerns the target JAK-2 (Homo sapiens, UniProt O60674). Put plainly: JAK2 inhibition assay. It counts as biochemical. The note with it: 12 μM ATP, 15 μM poly(Glu)4Tyr.
Data set [1] can be described thus: Microsomal stability assay. The class given is in vitro ADME. The note with it: 5 μM compound, 1 mg/mL liver microsome protein, 37° C., species not given. As to the method:
Microsomal stability was monitored by generation of depletion-time profiles in microsomes from a range of species (male CD-1 mouse, male Sprague-Dawley rat, male Beagle dog, male Cynomolgus monkey and pooled mixed gender human). Compound spiking solutions were made up by diluting down the compound stock solution in DMSO (typically 10 mM) to give a solution in acetonitrile (0.5 mM). […].
The reaction was initiated by the addition (250 μL) of the pre-incubated RGS to the pre-incubated microsome/VRT/PB mixture (pre-incubation in both instances was for 10 minutes at 37° C.). Samples were incubated within Eppendorf vials (1.5 ml) on a heater shaker (DPC Micromix 5 (settings; form 20, amplitude 4) modified to be heated, to 37° C., by two plate heaters fixed to the deck and controlled by a Packard Manual Heater) attached to a Multiprobe II HT Ex automated liquid handler. The liquid handler was programmed (WinPREP software) to sample the microsomal incubation mixture after 0, 2, 10, 30 and 60 minutes of incubation and transfer an aliquot (100 μL) to a stop block (96-well block) containing 100 μL of chilled methanol. The % organic in the stop mixture was optimized for analysis by addition of appropriate volumes of aqueous/organic (typically 100 μl of 50:50 methanol:water).
Prior to analysis the stop block was placed on a shaker (DPC Micromix 5; 10 min, form 20, amplitude 5) to precipitate out proteins. The block was then centrifuged (Jouan GR412; 2000 rpm, 15 min, 4° C.). A sample aliquot (200 μL) was then transferred to an analysis block and the block was centrifuged again (Jouan GR412; 2000 rpm, 5 min, 4° C.) prior to being sent for analysis. Depletion profiles were determined by monitoring the disappearance of VRT by liquid chromatography-tandem mass spectrometry (LC-MS/MS). Samples were injected (20 μL; Agilent 1100 liquid chromatographic system equipped with autosampler) onto an analytical column. Mobile phase consisted of Water+0.05% (v/v) formic acid (A) and methanol+0.05% (v/v) formic acid (B).
Running a gradient method optimized for the compound of interest carried out the compound elution from analytical column. The total run time was 6 minutes with a flow rate of 0.35 mL/min. The entire column effluent entered the electrospray ionization source (positive mode) of a Micromass Quattro LC tandem mass spectrometer between 0.5 and 5.9 min of the run. The mass spectrometry was optimized for the compound of interest. All incubations were conducted in duplicate and results were expressed as % parent remaining at either 30 minutes or 60 minutes relative to 0 minutes sample.
A general note: Liver microsomes are a subcellular fraction often used to study metabolism.

In another data set the target is Aurora-1 (Aurora B) (Homo sapiens, UniProt Q96GD4). Put plainly: Aurora-1 (Aurora B) inhibition assay (radiometric). The class given is biochemical. Here is the method:
An assay buffer solution was prepared which consisted of 25 mM HEPES (pH 7.5), 10 mM MgCl2, 0.1% BSA and 10% glycerol. […] To 22 μL of the Aurora-B solution, in a 96-well plate, was added 2 μl of a compound stock solution in DMSO and the mixture allowed to equilibrate for 10 minutes at 25° C. The enzyme reaction was initiated by the addition of 16 μl stock [γ-^33P]-ATP solution (˜20 nCi/μL) prepared in assay buffer, to a final assay concentration of 800 μM. The reaction was stopped after 3 hours by the addition of 16 μL 500 mM phosphoric acid and the levels of ^33P incorporation into the peptide substrate were determined by the following method.
A phosphocellulose 96-well plate (Millipore, Cat no. MAPHNOB50) was pre-treated with 100 μL of a 100 mM phosphoric acid prior to the addition of the enzyme reaction mixture (40 μL). The solution was left to soak on to the phosphocellulose membrane for 30 minutes and the plate subsequently washed four times with 200 μL of a 100 mM phosphoric acid. […] Levels of non-enzyme catalyzed background radioactivity were determined by adding 16 μL of the 500 mM phosphoric acid to control wells, containing all assay components (which acts to denature the enzyme), prior to the addition of the [γ-^33P]-ATP solution. Levels of enzyme catalyzed ^33P incorporation were calculated by subtracting mean background counts from those measured at each inhibitor concentration. […] Ki values were calculated from initial rate data by non-linear regression using the Prism software package (Prism 3.0, Graphpad Software, San Diego, Calif.).

Setting [2] is: 800 μM ATP, Kemptide, 25° C., read-out: Aurora B Ki.
The mark [3] stands for this setting: 400 μM ATP, 570 μM Kemptide, 30° C., 40 nM Aurora-2, read-out: Aurora A Ki.

Like-named read-outs stand apart in the source and are kept apart here.

Sequence of JAK-2 (O60674 whole entry, species assumed): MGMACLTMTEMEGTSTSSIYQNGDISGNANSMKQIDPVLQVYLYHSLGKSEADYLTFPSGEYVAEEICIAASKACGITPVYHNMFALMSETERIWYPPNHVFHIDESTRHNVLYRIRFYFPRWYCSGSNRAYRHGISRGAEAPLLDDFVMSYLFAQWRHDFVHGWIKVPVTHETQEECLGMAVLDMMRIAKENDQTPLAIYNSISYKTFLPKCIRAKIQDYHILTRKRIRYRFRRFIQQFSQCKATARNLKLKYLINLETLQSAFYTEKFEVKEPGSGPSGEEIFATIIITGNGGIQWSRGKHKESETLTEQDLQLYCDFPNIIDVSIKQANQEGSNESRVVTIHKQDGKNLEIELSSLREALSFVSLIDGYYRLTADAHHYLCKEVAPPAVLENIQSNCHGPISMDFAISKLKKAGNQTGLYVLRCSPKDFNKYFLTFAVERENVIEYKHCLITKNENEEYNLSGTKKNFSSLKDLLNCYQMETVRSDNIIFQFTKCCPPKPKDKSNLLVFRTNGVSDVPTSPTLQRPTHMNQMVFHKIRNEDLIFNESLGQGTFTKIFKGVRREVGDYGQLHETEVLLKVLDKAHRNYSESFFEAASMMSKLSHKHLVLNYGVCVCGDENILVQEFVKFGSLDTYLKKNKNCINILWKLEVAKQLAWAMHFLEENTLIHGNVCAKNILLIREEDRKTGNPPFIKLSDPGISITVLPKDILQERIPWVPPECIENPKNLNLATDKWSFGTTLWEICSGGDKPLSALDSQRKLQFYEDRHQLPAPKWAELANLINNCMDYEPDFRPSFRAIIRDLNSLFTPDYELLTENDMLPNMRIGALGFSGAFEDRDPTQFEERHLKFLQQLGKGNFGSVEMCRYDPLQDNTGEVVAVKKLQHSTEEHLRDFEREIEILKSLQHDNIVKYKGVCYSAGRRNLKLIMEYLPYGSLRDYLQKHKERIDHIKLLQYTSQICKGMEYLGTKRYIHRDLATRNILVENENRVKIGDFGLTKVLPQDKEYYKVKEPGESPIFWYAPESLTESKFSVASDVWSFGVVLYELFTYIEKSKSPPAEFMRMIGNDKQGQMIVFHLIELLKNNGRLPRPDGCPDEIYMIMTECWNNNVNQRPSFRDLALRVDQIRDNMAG
Sequence of Aurora-1 (Aurora B) (Q96GD4 whole entry): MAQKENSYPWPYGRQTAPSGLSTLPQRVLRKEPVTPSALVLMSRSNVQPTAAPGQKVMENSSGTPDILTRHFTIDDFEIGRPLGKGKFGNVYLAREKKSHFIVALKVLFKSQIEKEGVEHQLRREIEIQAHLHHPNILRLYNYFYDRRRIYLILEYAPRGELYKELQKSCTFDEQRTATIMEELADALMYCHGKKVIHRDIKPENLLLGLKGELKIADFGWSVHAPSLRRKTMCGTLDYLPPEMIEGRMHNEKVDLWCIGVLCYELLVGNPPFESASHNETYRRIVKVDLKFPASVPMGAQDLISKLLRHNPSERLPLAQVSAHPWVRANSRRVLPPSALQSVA

One may read the Ki as a dissociation constant, usually derived from enzyme kinetics or from competition with a known ligand. For `Cc1cc(Nc2cc(N3CCC3)nc(Sc3ccc(NC(=O)c4c(Cl)cccc4Cl)cc3)n2)n[nH]1` [Compound I-11], the Ki was determined as 0.71 nM on Aurora-2 (Aurora A), 330 nM at JAK-2 and 7 nM on Aurora-1 (Aurora B) (setting [2]). Also, in data set [1], the “Microsomal Stability (% remaining after 60 min.)” value came to 69%.

On to `O=C(Nc1ccc(Sc2nc(Nc3cc(C4CC4)[nH]n3)cc(N3CCC3)n2)cc1)c1ccccc1Cl` [Compound I-17], for which the figures for the inhibitory constant (Ki) at Aurora-2 (Aurora A) (setting [3]), at JAK-2 and on Aurora-1 (Aurora B) (setting [2]) were 0.65 nM, 410 nM and 6 nM, respectively. In data set [1], the “Microsomal Stability (% remaining after 30 min.)” value was 93%.

For `Cc1cc(Nc2cc(N3CCC3)nc(Sc3ccc(NC(=O)c4c(F)cccc4F)cc3)n2)[nH]n1` [Compound I-2, N-{4-[4-Azetidin-1-yl-6-(5-methyl-2H-pyrazol-3-ylamino)-pyrimidin-2-ylsulfanyl]-phenyl}-2,6-Difluoro-benzamide], the inhibitory constant (Ki) came to 1.9 nM at Aurora-2 (Aurora A) (setting [3]), 67 nM at JAK-2 and 6.5 nM at Aurora-1 (Aurora B) (setting [2]). In data set [1], the “Microsomal Stability (% remaining after 30 min.)” value is given as 107%. In addition, the “Microsomal Stability (% remaining after 60 min.)” value in data set [1] was 77%.

In the case of `CCc1cccc(C(=O)Nc2ccc(Sc3nc(Nc4cc(C)[nH]n4)cc(N4CCC4)n3)cc2)c1Cl` [Compound I-22], the Ki at Aurora-2 (Aurora A) was less than 0.35 nM; at JAK-2, 500 nM; on Aurora-1 (Aurora B) (setting [2]), less than 6 nM. Moreover, the “Microsomal Stability (% remaining after 30 min.)” value in data set [1] is recorded as 1%. In data set [1], the “Microsomal Stability (% remaining after 60 min.)” value is 46%.

For the compound `Cc1cc(Nc2cc(N3CCC3)nc(Sc3ccc(NC(=O)c4ccccc4C(F)(F)F)cc3)n2)[nH]n1` [Compound I-14], the Ki stood at 0.38 nM at Aurora-2 (Aurora A) (setting [3]), 720 nM at JAK-2 and 4.5 nM at Aurora-1 (Aurora B) (setting [2]). Moreover, the “Microsomal Stability (% remaining after 30 min.)” value in data set [1] was 103%. Besides, the “Microsomal Stability (% remaining after 60 min.)” value in data set [1] stood at 78%.

`Cc1cc(Nc2cc(N3CCC3)nc(Sc3ccc(NC(=O)c4cccc(C)c4Cl)cc3)n2)n[nH]1` [Compound I-20]: the Ki at Aurora-2 (Aurora A) came to 0.77 nM; at JAK-2, 290 nM; at Aurora-1 (Aurora B) (setting [2]) it was 6 nM. In addition, the “Microsomal Stability (% remaining after 30 min.)” value in data set [1] is given as 53%.

As for `Cc1cc(Nc2cc(N3CCC3)nc(Sc3ccc(NC(=O)c4ccccc4OC(F)(F)F)cc3)n2)[nH]n1` [Compound I-8], the inhibition constant (Ki) came to 0.67 nM at Aurora-2 (Aurora A), 1700 nM on JAK-2 and 11 nM at Aurora-1 (Aurora B) (setting [2]). Moreover, in data set [1], the “Microsomal Stability (% remaining after 30 min.)” value worked out at 100%.

Turning to `Cc1cc(Nc2cc(N3CCC3)nc(Sc3ccc(NC(=O)c4cc(Cl)ccc4Cl)cc3)n2)n[nH]1` [Compound I-21], the Ki on Aurora-2 (Aurora A) (setting [3]) turned out to be 0.78 nM; at JAK-2, 600 nM; on Aurora-1 (Aurora B) (setting [2]) it was 6.5 nM. Further, in data set [1], the “Microsomal Stability (% remaining after 30 min.)” value amounted to 86%.

As for `Cc1cc(Nc2cc(N3CCC3)nc(Sc3ccc(NC(=O)c4ccccc4Cl)cc3)n2)[nH]n1` [Compound I-1, N-{4-[4-Azetidin-1-yl-6-(5-methyl-2H-pyrazol-3-ylamino)-pyrimidin-2-ylsulfanyl]-phenyl}-2-chloro-benzamide], the Ki at Aurora-2 (Aurora A) (setting [3]) is 1 nM; on JAK-2 it was 380 nM; at Aurora-1 (Aurora B) (setting [2]), 7 nM. In data set [1], the “Microsomal Stability (% remaining after 30 min.)” value turned out to be 96%. Besides, in data set [1], the “Microsomal Stability (% remaining after 60 min.)” value was 79%.

Turning to `Cc1cc(Nc2cc(N3CCC3)nc(Sc3ccc(NC(=O)c4ccccc4F)cc3)n2)[nH]n1` [Compound I-3], the Ki at Aurora-2 (Aurora A) (setting [3]) is 2.2 nM; at JAK-2, 61 nM; on Aurora-1 (Aurora B) (setting [2]), 10 nM. Moreover, the “Microsomal Stability (% remaining after 30 min.)” value in data set [1] is 51%. The “Microsomal Stability (% remaining after 60 min.)” value in data set [1] was 66%.

On to `Cc1cc(Nc2cc(N3CCC3)nc(Sc3ccc(NC(=O)c4cccc(C(F)(F)F)c4F)cc3)n2)n[nH]1` [Compound I-13], for which the Ki on Aurora-2 (Aurora A) turned out to be 0.35 nM; at JAK-2, 130 nM; on Aurora-1 (Aurora B), 6 nM. Moreover, in data set [1], the “Microsomal Stability (% remaining after 30 min.)” value was 85%. For the same compound, the “Microsomal Stability (% remaining after 60 min.)” value in data set [1] is reported as 74%.

For `COc1ccccc1C(=O)Nc1ccc(Sc2nc(Nc3cc(C)[nH]n3)cc(N3CCC3)n2)cc1` [Compound I-6], the Ki stood at 3 nM on Aurora-2 (Aurora A), 1100 nM on JAK-2 and 26 nM on Aurora-1 (Aurora B) (setting [2]). In data set [1], the “Microsomal Stability (% remaining after 30 min.)” value amounted to 80%.

Take `Cc1cc(Nc2cc(N3CCC3)nc(Sc3ccc(NC(=O)c4cccc(Cl)c4F)cc3)n2)n[nH]1` [Compound I-15]: the Ki was 0.76 nM on Aurora-2 (Aurora A), 46 nM at JAK-2 and 7.5 nM on Aurora-1 (Aurora B) (setting [2]). For the same compound, the “Microsomal Stability (% remaining after 30 min.)” value in data set [1] was found to be 73%. Moreover, in data set [1], the “Microsomal Stability (% remaining after 60 min.)” value is 84%.

Take `Cc1cc(Nc2cc(N3CCC3)nc(Sc3ccc(NC(=O)c4ccccc4C(F)F)cc3)n2)[nH]n1` [Compound I-19]: the figures for the Ki on Aurora-2 (Aurora A) (setting [3]), on JAK-2 and on Aurora-1 (Aurora B) (setting [2]) were 1.2 nM, 410 nM and 19 nM, respectively. The “Microsomal Stability (% remaining after 30 min.)” value in data set [1] is 109%. The “Microsomal Stability (% remaining after 60 min.)” value in data set [1] turned out to be 91%.

`Cc1cc(Nc2cc(N3CCC3)nc(Sc3ccc(NC(=O)c4cccc(Cl)c4)cc3)n2)n[nH]1` [Compound I-12]: the Ki stood at 1.4 nM on Aurora-2 (Aurora A), 46 nM on JAK-2 and 19 nM on Aurora-1 (Aurora B) (setting [2]). The “Microsomal Stability (% remaining after 30 min.)” value in data set [1] stood at 94%.

Take `Cc1cc(Nc2cc(N3CCC3)nc(Sc3ccc(NC(=O)c4ccccc4C)cc3)n2)[nH]n1` [Compound I-5]: the Ki on Aurora-2 (Aurora A) (setting [3]) was 0.87 nM; at JAK-2 it was 190 nM; at Aurora-1 (Aurora B) (setting [2]), 14 nM. Further, the “Microsomal Stability (% remaining after 30 min.)” value in data set [1] is recorded as 98%. The “Microsomal Stability (% remaining after 60 min.)” value in data set [1] turned out to be 65%.

As to `Cc1cccc(C(=O)Nc2ccc(Sc3nc(Nc4cc(C)[nH]n4)cc(N4CCC4)n3)cc2)c1` [Compound I-4], the Ki at Aurora-2 (Aurora A) was determined as 2.5 nM; at JAK-2, 81 nM; at Aurora-1 (Aurora B) it was 24 nM. The “Microsomal Stability (% remaining after 30 min.)” value in data set [1] came to 76%.
